Measured values reported in patent US8771687B2, “Methods for treating a tumor using an antibody that specifically binds GRP94” (University of Pittsburgh—Of the Commonwealth System of …, priority 2010, dated 2014).

How the values were obtained:
[1] = test system: BRAF mutated advanced melanoma; settings: cited from earlier work
[2] = test system: advanced melanoma with the V600E BRAF mutation; settings: patients with the V600E BRAF mutation, Phase I; cited from earlier work
[3] = test system: GRP94 expression by M21 melanoma cell line; assay: Effect of BRAF-I on GRP94 expression, staining with mAb W9, flow cytometry; assay type: cell-based, human; settings: M21 cells, 1 μM of PLX4720, 14 days, vs untreated cells
Description: Effect of BRAF-I on GRP94 expression by M21 melanoma cell line. Cells (2×10^5/ml) were incubated in RPMI 1640 medium containing 10% FCS with 1 μM of BRAF-I for 14 days. […] Untreated cells were used as control. Percentage of stained cells and mean fluorescence intensity (MFI) are indicated.
M21 cells were cultured in RPMI 1640 medium supplemented with 10% FBS and 1 μM of PLX4720. Cells were harvested after 14 days of culture, and washed twice with PBS-BSA. Cells (1×10^5/sample), and were stained with 1 μg of anti-GRP94 mAb W9. Human IgG (HIg) and untreated cells were used as controls. Following an incubation of 30 min at 4° C., cells were washed three times with PBS containing 2% of BSA (PBS-BSA). Cells were then incubated with an appropriate dilution of PE-conjugated anti-human IgG for 30 min at 4° C. Cells were washed and fixed with 2% PFA. Immunofluorescence was measured using a Cyan cytofluorimeter.
M21 cells were cultured in RPMI 1640 medium supplemented with 10% FBS and 1 μM of PLX4720. Cells were harvested after 14 days of culture, and washed twice with PBS-BSA. Cells (1×10^5/sample), and were stained with 1 μg of anti-GRP94 mAb W9. Human IgG (HIg) and untreated cells were used as controls. Following an incubation of 30 min at 4° C., cells were washed three times with PBS containing 2% of BSA (PBS-BSA). […]

[4] = test system: V600E mutated melanoma cell lines sensitive to BRAF-I; assay: Development of secondary resistance on in vitro treatment with increasing doses, MTT assay; assay type: cell-based, human; settings: increasing doses (2.5-10 μM)
Description: The cell line M21 (harboring the V600E BRAF missense mutation) (4×10^5/well) was cultured in a 6-well plate containing RPMI 1640 medium supplemented with 10% FBS and 2.5 μM of PLX4720. Medium was changed every 4 days. On the 8th day the concentration of PLX4720 was increased to 5 μM. Cells were cultured under these conditions for 12 days changing the medium every 4 days. Then the concentration of PLX4720 in the medium was increased to 10 μM, and the medium has been changed every 3 days. Cells were cultured until when resistant colonies appeared (around 3 weeks). Cells were tested for resistance to BRAF-I PLX4720 by analyzing their growth in the presence of 10 μM of PLX4720, using the MTT assay.

For `CCCS(=O)(=O)Nc1ccc(F)c(C(=O)c2c[nH]c3ncc(-c4ccc(Cl)cc4)cc23)c1F` [PLX4032, Vemurafenib], the response rate ([1]; 32 BRAF mutated advanced melanoma patients, phase II study) is given as 70%, the “median duration of response” value ([1]; patients, secondary resistance) is given as roughly 8 months and the “tumor regression and overall survival” value [2] is given as “effective in promoting tumor regression and increasing overall survival”.

With `CCCS(=O)(=O)Nc1ccc(F)c(C(=O)c2c[nH]c3ncc(Cl)cc23)c1F` [PLX4720] the “expression of GRP94” value [3] was “increased expression of GRP94” and the “time of in vitro treatment until cell lines became secondary resistant” value [4] was 3-4 week.
